Measured values published in the supplement of paper PMC10307832.

Columns and labels:
Test in all cases: relative viability (nuclei count vs DMSO), 5 days (fraction); higher = more cells survive
A-427 = test system: A-427
Outline: (§1)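 Nuclei were stained with Hoechst during a one-step fixation (final 0.05% Triton X-100, 1% formaldehyde, 1 ug/ml Hoechst) carried out 5 days after dosing, then counted on 4× images. The cells, lung cancer lines in 1536-well plates, had been dosed by pin tool the day after seeding with one drug alone or a fixed anchor-drug dose plus five library-drug doses (not always all listed) in √10 steps. Relative viability is the nuclei count in treated wells divided by that in vehicle wells, and each value is the median of duplicate plates.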

H3255 = test system: H3255
Outline: as §1

NCI-H1915 = test system: NCI-H1915
Outline: as §1

LCLC-97TM1 = test system: LCLC-97TM1
Outline: as §1

NCI-H2087 = test system: NCI-H2087
Outline: as §1

PC-3 [JPC-3] = test system: PC-3 [JPC-3]
Outline: as §1

NCI-H460 = test system: NCI-H460
Outline: as §1

NCI-H650 = test system: NCI-H650
Outline: as §1

NCI-H1944 = test system: NCI-H1944
Outline: as §1

CAL-12T = test system: CAL-12T
Outline: as §1

ABC-1 = test system: ABC-1
Outline: as §1

LC-2-ad = test system: LC-2-ad
Outline: as §1

NCI-H727 = test system: NCI-H727
Outline: as §1

BEN = test system: BEN
Outline: as §1

201T = test system: 201T
Outline: as §1

NCI-H441 = test system: NCI-H441
Outline: as §1

NCI-H1651 = test system: NCI-H1651
Outline: as §1

NCI-H596 = test system: NCI-H596
Outline: as §1

SMILES: Nc1ccn([C@@H]2O[C@H](CO)[C@@H](O)[C@@H]2O)c(=O)n1 [Cytarabine] + NC(=O)Nc1cc(-c2cccc(F)c2)sc1C(=O)N[C@H]1CCCNC1 [AZD7762] (partner 0.2 µM)
- relative viability (A-427; first compound 0.005 µM): 0.343
- relative viability (A-427; first compound 0.01581 µM): 0.246
- relative viability (A-427; first compound 0.05 µM): 0.218
- relative viability (A-427; first compound 0.1581 µM): 0.184
- relative viability (A-427; first compound 0.5 µM): 0.184
- relative viability (H3255; first compound 0.005 µM): 0.945
- relative viability (H3255; first compound 0.01581 µM): 0.812
- relative viability (H3255; first compound 0.05 µM): 0.764
- relative viability (H3255; first compound 0.1581 µM): 0.583
- relative viability (H3255; first compound 0.5 µM): 0.551
- relative viability (NCI-H1915; first compound 0.005 µM): 0.579
- relative viability (NCI-H1915; first compound 0.01581 µM): 0.386
- relative viability (NCI-H1915; first compound 0.05 µM): 0.241
- relative viability (NCI-H1915; first compound 0.1581 µM): 0.155
- relative viability (NCI-H1915; first compound 0.5 µM): 0.131
- relative viability (LCLC-97TM1; first compound 0.005 µM): 0.14
- relative viability (LCLC-97TM1; first compound 0.01581 µM): 0.0846
- relative viability (LCLC-97TM1; first compound 0.05 µM): 0.0944
- relative viability (LCLC-97TM1; first compound 0.1581 µM): 0.0643
- relative viability (LCLC-97TM1; first compound 0.5 µM): 0.0575
- relative viability (NCI-H2087; first compound 0.005 µM): 1.28
- relative viability (NCI-H2087; first compound 0.01581 µM): 1.56
- relative viability (NCI-H2087; first compound 0.05 µM): 1.11
- relative viability (NCI-H2087; first compound 0.1581 µM): 0.709
- relative viability (NCI-H2087; first compound 0.5 µM): 0.231
- relative viability (PC-3 [JPC-3]; first compound 0.005 µM): 0.746
- relative viability (PC-3 [JPC-3]; first compound 0.01581 µM): 0.809
- relative viability (PC-3 [JPC-3]; first compound 0.05 µM): 0.676
- relative viability (PC-3 [JPC-3]; first compound 0.1581 µM): 0.395
- relative viability (PC-3 [JPC-3]; first compound 0.5 µM): 0.425
- relative viability (NCI-H460; first compound 0.005 µM): 0.209
- relative viability (NCI-H460; first compound 0.01581 µM): 0.0904
- relative viability (NCI-H460; first compound 0.05 µM): 0.0497
- relative viability (NCI-H460; first compound 0.1581 µM): 0.0319
- relative viability (NCI-H460; first compound 0.5 µM): 0.0286
- relative viability (NCI-H650; first compound 0.005 µM): 0.843
- relative viability (NCI-H650; first compound 0.01581 µM): 0.26
- relative viability (NCI-H650; first compound 0.05 µM): 0.19
- relative viability (NCI-H650; first compound 0.1581 µM): 0.146
- relative viability (NCI-H650; first compound 0.5 µM): 0.162
- relative viability (NCI-H1944; first compound 0.005 µM): 0.353
- relative viability (NCI-H1944; first compound 0.01581 µM): 0.204
- relative viability (NCI-H1944; first compound 0.05 µM): 0.159
- relative viability (NCI-H1944; first compound 0.1581 µM): 0.12
- relative viability (NCI-H1944; first compound 0.5 µM): 0.135
- relative viability (CAL-12T; first compound 0.005 µM): 0.611
- relative viability (CAL-12T; first compound 0.01581 µM): 0.405
- relative viability (CAL-12T; first compound 0.05 µM): 0.248
- relative viability (CAL-12T; first compound 0.1581 µM): 0.208
- relative viability (CAL-12T; first compound 0.5 µM): 0.221
- relative viability (ABC-1; first compound 0.005 µM): 0.626
- relative viability (ABC-1; first compound 0.01581 µM): 0.899
- relative viability (ABC-1; first compound 0.05 µM): 0.745
- relative viability (ABC-1; first compound 0.1581 µM): 0.744
- relative viability (ABC-1; first compound 0.5 µM): 0.666
- relative viability (LC-2-ad; first compound 0.005 µM): 0.811
- relative viability (LC-2-ad; first compound 0.01581 µM): 0.681
- relative viability (LC-2-ad; first compound 0.05 µM): 0.674
- relative viability (LC-2-ad; first compound 0.1581 µM): 0.245
- relative viability (LC-2-ad; first compound 0.5 µM): 0.208
- relative viability (NCI-H727; first compound 0.005 µM): 0.518
- relative viability (NCI-H727; first compound 0.01581 µM): 0.565
- relative viability (NCI-H727; first compound 0.05 µM): 0.377
- relative viability (NCI-H727; first compound 0.1581 µM): 0.361
- relative viability (NCI-H727; first compound 0.5 µM): 0.418
- relative viability (BEN; first compound 0.005 µM): 0.588
- relative viability (BEN; first compound 0.01581 µM): 0.425
- relative viability (BEN; first compound 0.05 µM): 0.296
- relative viability (BEN; first compound 0.1581 µM): 0.259
- relative viability (BEN; first compound 0.5 µM): 0.241
- relative viability (201T; first compound 0.005 µM): 0.635
- relative viability (201T; first compound 0.01581 µM): 0.596
- relative viability (201T; first compound 0.05 µM): 0.653
- relative viability (201T; first compound 0.1581 µM): 0.342
- relative viability (201T; first compound 0.5 µM): 0.265
- relative viability (NCI-H441; first compound 0.005 µM): 0.982
- relative viability (NCI-H441; first compound 0.01581 µM): 0.912
- relative viability (NCI-H441; first compound 0.05 µM): 0.814
- relative viability (NCI-H441; first compound 0.1581 µM): 0.306
- relative viability (NCI-H441; first compound 0.5 µM): 0.211
- relative viability (NCI-H1651; first compound 0.005 µM): 0.484
- relative viability (NCI-H1651; first compound 0.01581 µM): 0.447
- relative viability (NCI-H1651; first compound 0.05 µM): 0.297
- relative viability (NCI-H1651; first compound 0.1581 µM): 0.114
- relative viability (NCI-H1651; first compound 0.5 µM): 0.0958
- relative viability (NCI-H596; first compound 0.005 µM): 1
- relative viability (NCI-H596; first compound 0.01581 µM): 1.01
- relative viability (NCI-H596; first compound 0.05 µM): 0.787
- relative viability (NCI-H596; first compound 0.1581 µM): 0.419
- relative viability (NCI-H596; first compound 0.5 µM): 0.343
